# Experimental data taken from PubChem BioAssay AID179 (DTP/NCI, 2004).
# Active and inactive are the calls of the source.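 How the source made its calls: active means compounds giving half or more protection of infected cells from virus-caused growth loss, again on retest; inactive means the rest.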 Where a SMILES comes first, the peptide text is derived from it. The star is where a group is joined. Boc = CC(C)(C)OC(=O)*
# System: CEM cells HIV-1 protection, formazan growth assay
# Assay: NCI AIDS Antiviral Assay
# Conditions: for IC50: measured here: growth of uninfected CEM cells
# How it was run: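 Five concentrations of each compound were applied to infected and uninfected human CEM cells. Protection from HIV-1 was judged from growth measured with a soluble formazan assay.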
SMILES,EC50 [µM],IC50 [µM],outcome
COC(=O)NC1(NC(=O)OC)NC(=O)c2cc(OC)c(OC)c(OC)c2N1,> 200,10,
O=[N+]([O-])c1cc(Br)cc2cc(Cl)cnc12,,,inactive
COC(=O)c1cc(C(=CCC23CC4CC(CC(C4)C2)C3)c2cc(Cl)c(OC)c(C(=O)OC)c2)cc(Cl)c1OC,> 17.4,> 17.4,
CC(=O)O[C@H]1CC[C@@]2(C)C(=CC[C@@H]3C2CC[C@@]2(C)C3CC[C@@H]2c2ncc(-c3ccccc3)s2)C1 (stereo partly specified),> 52.5,> 52.5,
Cc1nn(C(=O)c2c(O)cccc2Cl)c(C)c1N=Nc1ccccc1,,,inactive
O=c1oc2ccccc2c(O)c1/C=N/C(=S)NCc1ccccc1,> 200,> 200,
COc1ccc2ccc3c(CCN(C)C#N)cc4c(c3c2c1OC(C)=O)OCO4,> 34.7,> 34.7,
CCN(CC)CC(=O)NC1c2ccc(Cl)cc2Oc2c(C)cccc21 (stereo unspecified),> 72.4,58.9,
COc1ccc(/C=C2\CCCCCC2=O)cc1,> 200,> 200,
CN1C(=S)NC2C(O)C(O)C(CO)OC21 (stereo unspecified),> 1070,> 1070,
COC(C)(C)[C@@H]1CCCN1C1=C(C)C(=O)OC1,> 200,> 200,
Cc1cc(Cl)ccc1NC(=O)C1C(=O)N(c2ccc(Cl)cc2C)C(=O)/C1=N\NC(N)=S (stereo unspecified),> 11,> 11,
CC1(C)CCc2cc3c(-c4ccccc4)cc(=O)oc3cc2O1,,,inactive
CCN(CC)CCOc1ccc(/C(C#N)=C/c2ccc(OCCO)cc2)cc1,> 200,20.9,
COc1cccc(/C=C2\S/C(=N/Nc3nc(C)c(C)s3)NC2=O)c1O,> 200,129,
CC1=Cc2cc3[n-]c(cc4nc(cc5[n-]c(cc1n2)c(C)c5CCC(=O)O)C(CCC(=O)O)=C4C)cc3C.[Cu+2],> 8.71,7.59,
CCC1(C(=O)OC)CCc2c(OC)ccc(OC)c2C1=O (stereo unspecified),,,inactive
CCOP(=O)(OCC)C1CC(C)OC1=O (stereo unspecified),,,inactive
CCOC(=O)NC(Nc1ccc(C(=O)OCC)cc1)(C(F)(F)F)C(F)(F)F,> 200,17,
NC(=S)Nc1ccc2c(c1)oc1ccccc12,> 200,> 200,
O=c1[nH]c2nn(-c3ccccc3)cc2c(=O)n1OS(=O)(=O)c1ccccc1,> 200,> 200,
COc1ccc(S(=O)(=O)N/N=C/CN2C(=O)c3ccccc3C2=O)cc1,> 135,> 135,

SMILES,EC50 [µM],IC50 [µM],outcome
CC1=C(C(=O)CC(=O)C(=O)Nc2cc(C)ccc2C)Sc2ccccc2N1,> 10,> 10,
CC1=NN(C2=NS(=O)(=O)c3ccccc3N2C)C(=O)C1,> 123,> 123,
CC1CN=C(Nc2cccc(C(F)(F)F)c2)S1 (stereo unspecified),> 200,57.5,
C=CCn1c(=S)sc2c(C(=O)OCC)c3c(C)cc(C)cn3c2c1=O,> 3.89,> 3.89,
COc1ccc(-n2c(-c3ccccc3)cc(-c3cccs3)c2-c2cccs2)cc1,> 200,> 200,
CNCc1cc(OC)ccc1-c1ccc(OC)c(OC)c1OC,> 708,105,
Cc1ccc(C(=O)c2ccccc2C(=O)O)c(C)c1,> 200,> 200,
O=c1[nH][nH]c(=O)n1Cc1ccccc1Cn1c(=O)[nH][nH]c1=O,> 100,> 100,
CN(C)CCn1c(=O)c2ccc(NCCN3CCNCC3)c3c(=O)c4ccccc4n(c1=O)c23,> 200,0.0631,
C/C(CN1C(=O)c2ccccc2C1=O)=N\NS(=O)(=O)c1cccc(C(=O)O)c1,> 309,> 309,
N#Cc1nc(CCC(c2nc(C#N)c(N)o2)N2C(=O)c3ccccc3C2=O)oc1N (stereo unspecified),> 200,> 200,
COc1ccc(Nc2ccnc3cc(Cl)ccc23)cc1CCN,> 89.1,> 89.1,
COC(=O)c1cc(C(=O)OC)c(C/C(=N/NC(N)=S)C(=O)Nc2ccc(Cl)c(Cl)c2)nc1C/C(=N/NC(N)=S)C(=O)Nc1ccc(Cl)c(Cl)c1,> 200,> 200,
COc1cc(/C=C2\Cc3ccccc3C2=O)cc(OC)c1OC,> 23.4,> 23.4,
CCCCCCCCCCCCCC(=O)OC1C(O)C(CO)OC(OC)C1NC(=O)N(CCCl)N=O (stereo unspecified),> 34.7,> 34.7,
CC(=O)C1C(=O)C(=O)N(CCN2C(=O)C(=O)C(C(C)=O)C2=O)C1=O (stereo unspecified),> 11.2,> 11.2,
Cc1ccc(NC(=O)c2cc(S(=O)(=O)Nc3n[nH]c(=O)n3-c3ccccc3)c(S)cc2Cl)cc1,42.7,> 200,
CC(=O)N(C(=O)CC(=O)NNCc1ccccc1Cl)c1ccc(Cl)cc1,> 200,> 200,
CC(C)(N)Cc1ccccc1Cl,> 200,> 200,
COC(=O)CNC(=O)C(CC(C)C)NC(=O)C(CC(C)C)NC(=O)OC(C)(C)C (stereo not drawn) (Boc-Leu-Leu-Gly-OMe; configuration not given here),,,inactive
Cc1ccc(S(=O)(=O)OCC23CCC(C4CC42)C2CC23)cc1 (stereo unspecified),> 100,77.6,
CC1(O)C(O)C(O)C1(O)CO (stereo unspecified) (tested in a mixture with another compound),> 200,> 200,

SMILES,EC50 [µM],IC50 [µM],outcome
CCCNCC(=O)O[C@]1(CC)C(=O)OCc2c1cc1n(c2=O)Cc2cc3ccccc3nc2-1,> 10,0.0525,
C=C(CCC(C)C1CCC2C3=C(C(=O)CC21C)C1(C)CCC(=O)[C@@H](C)C1CC3=O)C(C)C(=O)O (stereo partly specified),> 200,46.8,
Cc1oc(N)c(S(=O)(=O)c2ccc(Cl)cc2)c1C,> 200,34.7,
CCOC(=O)/C=C/C(=O)O/C=C/[N+](=O)[O-],182,> 200,
O=C(O)/C=C/c1ccc(OS(=O)(=O)O)cc1,> 200,> 200,
CCOC(=O)Cc1csc2nc(-c3ccccc3)nn12,> 200,132,
C[C@]12CC[C@H](OC(=O)Cc3ccc(N(CCCl)CCCl)cc3)CC1CC[C@@H]1C2CC[C@]2(C)NC(=O)CCC12 (stereo partly specified),> 17.8,2.95,
O=C(N1CCN(CCO)CC1)N1c2ccccc2Sc2ccccc21,> 200,117,
CC(=O)Nc1cc(C)ccc1Cl,> 1350,> 1350,
O=C1C2CC=CCC2C(=O)N1n1c(Cc2ccccc2)n[nH]c1=O (stereo unspecified),> 200,> 200,
CC1OC(=O)N(CCCC=C2SCCCS2)C1=O (stereo unspecified),,,inactive
C=C1CCC(=O)NC1=O,,,inactive
O=C(O)CN1CCN2CCOCCOCCN(CC1)CCN(CC(=O)O)CC2,> 200,34.7,
Cc1cc(O)c(/C=N/c2nc(-c3ccc([N+](=O)[O-])cc3)cs2)c(=O)o1,> 200,> 200,
Nc1nc(=S)c2c(ncn2CCO)[nH]1,> 324,126,
Cc1cc2c(=O)cc(-c3cccs3)oc2c(C(=O)O)c1C,,,inactive
CC1(C)CSCC(C)(C)C(=N/N)/C1=N\N,> 200,> 200,
O=c1[nH]c(=O)n(C2CC(O)C(CO)O2)cc1C#Cc1cc(C(F)(F)F)cc(C(F)(F)F)c1 (stereo unspecified),> 40.7,> 40.7,
O=C(NN1CCOC1=O)OCCCl,> 200,> 200,
O=[As]c1ccc(C(=O)O)cc1 (stereo unspecified),> 1170,245,
CN(C)CCCOc1ccc(/C=C2/CCC/C(=C/c3ccc(OCCCN(C)C)cc3)C2=O)cc1,> 15.1,1.05,
CC(=O)c1cccc(NC(=O)C(=O)C(C(=O)c2ccccc2F)C2OC(=O)c3ccccc32)c1 (stereo unspecified),> 389,15.8,

SMILES,EC50 [µM],IC50 [µM],outcome
CSCCCNC(=O)[C@H](CSC)NC(=O)c1csc(CCNC(=O)[C@@H](NSc2ccccc2[N+](=O)[O-])C(C)O)n1 (stereo partly specified),> 57.5,> 57.5,
O=C1CCCC(O)=C1SC1=C(O)CCCC1=O,,,inactive
CC(Nc1cccc(Cl)c1)c1ccncc1 (stereo unspecified),> 200,95.5,
COc1ccc2c(c1)OC1(OCCO1)[C@@H]1C2CC[C@@]2(C)C1CCC21OCCO1 (stereo partly specified),> 18.6,> 18.6,
Cc1c(C(=O)CC(=O)C(=O)NC2C3CC4CC(C3)CC2C4)[n+](=O)c2ccccc2n1[O-] (stereo unspecified),> 12.3,> 12.3,
COc1cc2ccc1NC(=O)N1CCN(CC1)C(=O)Nc1ccc(cc1OC)-c1ccc(c(OC)c1)NC(=O)N1CCN(CC1)C(=O)Nc1ccc-2cc1OC,> 0.933,> 0.933,
CCOC(=O)c1cn(CC)c2ccc3c(c2c1=O)S(=O)(=O)C=C3,> 200,29.5,
O=C(C1OC1c1ccc(O)cc1)C12CC3CC(CC(C3)C1)C2 (stereo unspecified),> 200,52.5,
Cc1cn([C@H]2C[C@H](NC(=O)N(O)C[C@H]3O[C@@H](n4cc(C)c(=O)[nH]c4=O)C[C@@H]3O)[C@@H](CO)O2)c(=O)[nH]c1=O,> 200,> 200,
CC(O)CSP(=S)(Oc1ccccc1)Oc1ccccc1 (stereo unspecified),> 39.8,> 39.8,
CN1CCC23c4c5ccc(O)c4OC2C(=NN=C2CCC4(O)C6Cc7ccc(O)c8c7C4(CCN6C)C2O8)CCC3(O)C1C5 (stereo unspecified),> 200,105,
CNc1ccc(Cl)cc1S(=O)(=O)c1ccccc1,6.03,> 200,
CCCCCCCCCCCCNC(=O)c1ccc([Se][Se]c2ccc(C(=O)NCCCCCCCCCCCC)cc2)cc1,> 7.08,> 7.08,
COC(=O)CC1NC(=O)[C@@H]1C(C)O (stereo partly specified),> 251,> 251,
CCOC(=O)/N=c1/nc2ccn(C)c2c(NC(=O)OCC)s1,> 209,> 209,
Cc1ccc(N/N=c2\c3nc4ccccc4nc2n(-c2ccccc2C)c(=S)n3-c2ccc(C)cc2)cc1,,,inactive
CC1(C)Oc2ccc(NC(=O)CCC(N)C(=O)O)cc2O1 (stereo unspecified),186,> 200,
Nc1ccn(CC(=O)NCCCO)c(=O)n1,> 200,> 200,
Nc1ncnc2c1ncn2C1OC(CO)(C(F)(F)F)C(O)C1O (stereo unspecified),> 200,182,
Cc1cccc2c(NCCC[N+](C)(C)[O-])c3c([N+](=O)[O-])ccc(C)c3nc12,> 100,0.372,
